In the supplement of paper PMC10307832:

Key:
Test in all cases: relative viability (nuclei count vs DMSO), 5 days (fraction); higher = more cells survive
[1] = test system: NCI-H1355
Summary of the method: (§1)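 Lung cancer cell lines were pin-tool dosed in 1536-well plates on the day after seeding, with either a lone drug or a fixed anchor-drug dose plus five library-drug doses (not always all listed) in √10 steps. Nuclei were counted on 4× images after 5 days. Relative viability is the ratio of treated-well to vehicle-well nuclei counts, with each value a median of duplicate plates.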

[2] = test system: NCI-H1703
Summary of the method: as §1

[3] = test system: NCI-H520
Summary of the method: as §1

[4] = test system: LC-2-ad
Summary of the method: as §1

[5] = test system: NCI-H1299
Summary of the method: as §1

[6] = test system: EBC-1
Summary of the method: as §1

[7] = test system: LCLC-97TM1
Summary of the method: as §1

[8] = test system: NCI-H23
Summary of the method: as §1

[9] = test system: IA-LM
Summary of the method: as §1

[10] = test system: NCI-H2347
Summary of the method: as §1

[11] = test system: A549
Summary of the method: as §1

[12] = test system: PC-3 [JPC-3]
Summary of the method: as §1

[13] = test system: Calu-6
Summary of the method: as §1

COCC1(CO)C(=O)C2CCN1CC2 (stereo unspecified) [PRIMA-1MET] + C[C@]1(O)C[C@@H](c2nc(-c3ccc4ccc(-c5ccccc5)nc4c3)c3c(N)nccn32)C1 [Linsitinib] (partner 1 µM)
relative viability ([1]; first compound 0.2 µM): 0.998
relative viability ([1]; first compound 0.6325 µM): 0.796
relative viability ([1]; first compound 2 µM): 0.68
relative viability ([1]; first compound 6.325 µM): 0.81
relative viability ([1]; first compound 20 µM): 0.76
relative viability ([2]; first compound 0.2 µM): 0.25
relative viability ([2]; first compound 6.325 µM): 1.29
relative viability ([2]; first compound 20 µM): 0.0482
relative viability ([3]; first compound 0.2 µM): 1.05
relative viability ([3]; first compound 0.6325 µM): 1
relative viability ([3]; first compound 6.325 µM): 0.869
relative viability ([3]; first compound 20 µM): 0.0887
relative viability ([4]; first compound 0.2 µM): 0.967
relative viability ([4]; first compound 0.6325 µM): 0.843
relative viability ([4]; first compound 2 µM): 0.754
relative viability ([4]; first compound 6.325 µM): 0.858
relative viability ([4]; first compound 20 µM): 0.598
relative viability ([5]; first compound 0.2 µM): 1.15
relative viability ([5]; first compound 0.6325 µM): 0.852
relative viability ([5]; first compound 2 µM): 1.01
relative viability ([5]; first compound 6.325 µM): 1.05
relative viability ([5]; first compound 20 µM): 0.917
relative viability ([6]; first compound 0.2 µM): 1.02
relative viability ([6]; first compound 0.6325 µM): 0.972
relative viability ([6]; first compound 2 µM): 0.758
relative viability ([6]; first compound 6.325 µM): 0.9
relative viability ([6]; first compound 20 µM): 0.623
relative viability ([7]; first compound 0.2 µM): 0.213
relative viability ([7]; first compound 2 µM): 0.183
relative viability ([7]; first compound 6.325 µM): 0.199
relative viability ([7]; first compound 20 µM): 0.117
relative viability ([8]; first compound 0.2 µM): 0.692
relative viability ([8]; first compound 0.6325 µM): 0.443
relative viability ([8]; first compound 2 µM): 0.419
relative viability ([8]; first compound 6.325 µM): 0.416
relative viability ([8]; first compound 20 µM): 0.113
relative viability ([9]; first compound 0.2 µM): 0.483
relative viability ([9]; first compound 0.6325 µM): 0.661
relative viability ([9]; first compound 2 µM): 0.358
relative viability ([9]; first compound 6.325 µM): 0.713
relative viability ([9]; first compound 20 µM): 0.573
relative viability ([10]; first compound 0.2 µM): 1.02
relative viability ([10]; first compound 0.6325 µM): 0.847
relative viability ([10]; first compound 2 µM): 0.697
relative viability ([10]; first compound 6.325 µM): 0.995
relative viability ([10]; first compound 20 µM): 0.934
relative viability ([11]; first compound 0.2 µM): 0.708
relative viability ([11]; first compound 0.6325 µM): 0.559
relative viability ([11]; first compound 2 µM): 0.281
relative viability ([11]; first compound 6.325 µM): 0.598
relative viability ([11]; first compound 20 µM): 0.403
relative viability ([12]; first compound 0.2 µM): 1
relative viability ([12]; first compound 0.6325 µM): 0.92
relative viability ([12]; first compound 2 µM): 0.979
relative viability ([12]; first compound 6.325 µM): 1.02
relative viability ([12]; first compound 20 µM): 0.91
relative viability ([13]; first compound 0.2 µM): 1.02
relative viability ([13]; first compound 0.6325 µM): 0.885
relative viability ([13]; first compound 2 µM): 0.732
relative viability ([13]; first compound 6.325 µM): 0.957
relative viability ([13]; first compound 20 µM): 0.687
